Data reported in ChEMBL document CHEMBL6121001, “Benzimidazole analogues active against adult Schistosoma mansoni: SAR analyses, In vivo efficacy in mice, and preliminary mechanistic studies as potential inhibitors of hemozoin formation” (Eur J Med Chem, 2025).

Test: Apparent permeability of compound at 1 mM incubated for 4 hrs by PAMPA based LC-MS/MS analysis
Assay type: ADME

Papp at 4 h, 1000 µM [×10⁻⁶ cm/s]	SMILES
18	FC(F)(F)c1ccc(Cn2c(NC3CCN(Cc4ccccc4)CC3)nc3ccccc32)cc1
23	Oc1ccccc1CN1CCC(Nc2nc3ccccc3n2Cc2ccc(C(F)(F)F)cc2)CC1
0.18	Oc1ncccc1CN1CCC(Nc2nc3ccccc3n2Cc2ccc(C(F)(F)F)cc2)CC1
